Laboratory results reported in PubChem BioAssay (NCI).
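Cells were grown in 96-well plates and exposed to each compound for 48 hours at five concentrations; endpoints were interpolated linearly between bracketing concentrations, or set to the highest concentration if not reached. TGI is the concentration that stops growth completely.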

How the values were obtained:
RXF-631 renal = experiment: growth of human tumour cells (NCI), 48 h
BT-549 breast = experiment: growth of human tumour cells (NCI), 48 h

SMILES	TGI (RXF-631 renal) [µM]	TGI (BT-549 breast) [µM]
C=C(C)C1Cc2c(cc(O)c3c(=O)c4ccccc4n(C)c23)O1 (stereo not drawn)	> 100	
O=C(O)Cc1ccc(N2N=C(c3ccccc3)CC2=O)cc1		> 100
COc1ccc(/C(Cl)=C(\C=O)c2ccc(F)cc2)cc1	80.6	
